A short description of data set [1]: DPPH radical scavenging activity. The protocol:
The DPPH assay is used conventionally to quantify a compound’s ability to trap free radicals.
The compounds were evaluated for their ability to scavenge stable DPPH radicals, using a modification of the method by Turkoglu et al..

A short description of data set [2]: Ferric reducing antioxidant power (FRAP). The protocol:
FRAP is a ferric (Fe^3+) to ferrous (Fe^2+) ions reduction assay that measures a compound’s electron-donating capacity, i.e., the antioxidant’s reducing power.
The mixture was incubated at 50 °C for 20 min, followed by acidification with 100 μL trichloroacetic acid (10%). After centrifugation at 3500 rpm for 10 min, 200 μL of the supernatant was transferred into another test tube containing 200 μL of distilled water and 0.8 mL of FeCl3 (0.1%). Finally, the absorbance was read at 700 nm, and the total reductive antioxidant power was calculated thus: Ferric reducing antioxidant power (%)=Absorbance of compound/Absorbance of 500µM gallic acid×100

Data set [3] can be described thus: Nitric oxide (NO) scavenging activity. As for the experimental part: The screening of the present compound series for NO radical scavenging activity (Table 2) identified excellent NO scavengers.
The antioxidant capacity of the compounds to scavenge nitric oxide radicals was determined using a modified version of the protocol by Kurian et al.. Briefly, 250 μL of sodium nitroprusside (10 mM) prepared in sodium phosphate buffer (pH 7.4) was added to 500 μL of the compound solution (62.5–500 μM) or distilled water (control). The resulting solution was incubated at 37 °C for 2 h. Then, 250 μL of Griess reagent was added to the reaction mixture before the absorbance was measured at 546 nm. The nitric oxide scavenging activity of the compounds was calculated with the formula: Nitric oxide scavenging (%)=1−Absorbance of compound/Absorbance of control×100

For data set [4], the target named is T1, porcine pancreatic amylase (Sus scrofa, UniProt P00690).
T1 construct: purchased Merck
T1 sequence (P00690 16-511): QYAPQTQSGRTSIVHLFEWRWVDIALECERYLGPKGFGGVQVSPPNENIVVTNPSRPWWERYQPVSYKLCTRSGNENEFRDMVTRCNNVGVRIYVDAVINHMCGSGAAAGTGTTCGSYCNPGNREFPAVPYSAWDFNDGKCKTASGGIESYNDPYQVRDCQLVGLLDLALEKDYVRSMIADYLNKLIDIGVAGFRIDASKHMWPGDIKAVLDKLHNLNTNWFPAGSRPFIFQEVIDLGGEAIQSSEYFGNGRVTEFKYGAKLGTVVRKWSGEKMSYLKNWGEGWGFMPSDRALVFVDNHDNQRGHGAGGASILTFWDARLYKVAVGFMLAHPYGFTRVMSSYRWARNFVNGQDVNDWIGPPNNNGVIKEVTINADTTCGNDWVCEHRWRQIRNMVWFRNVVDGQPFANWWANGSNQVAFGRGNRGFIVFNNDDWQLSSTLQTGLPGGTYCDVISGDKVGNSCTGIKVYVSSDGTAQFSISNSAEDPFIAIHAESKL
In words: α-Amylase inhibitory activity (starch/DNS). The class given is biochemical. As for the experimental part:
α-Amylase inhibitory activity was determined according to Ibitoye et al. with slight modifications. […] The reaction in the mixture was terminated with a 1 mL dinitrosalicylate reagent before boiling for 10 min. The cooled mixture was diluted with 5 mL distilled water, and the absorbance was read at 540 nm. The inhibitory activity was calculated using the formula below: % Inhibition=1−Absorbance of compound/Absorbance of control×100

The next data set deals with T2, α-glucosidase (Saccharomyces cerevisiae, UniProt P38158).
T2 construct: purchased Merck
Put plainly: biochemical. The protocol: The α-glucosidase inhibitory activity was evaluated using a previous method with slight modifications.

Where [5] appears, read: DPPH radical scavenging, 30 min, 25 °C.
[6] abbreviates: ferric reducing antioxidant power.
[7] abbreviates: nitric oxide radical scavenging, 37 °C, 2 h.
Setting [8] is: porcine pancreatic amylase, starch, pH 6.9, 25 °C, read-out: IC50 α-Amylase.
Setting [9] is: pNPG substrate, pH 6.8, 37 °C, read-out: IC50 α-Glucosidase.

Like-named read-outs stand apart in the source and are kept apart here.

Usually IC50 stands for the midpoint of a concentration-inhibition curve. In general, melting point refers to the temperature of the solid-liquid transition.

T2 sequence (P38158 whole entry): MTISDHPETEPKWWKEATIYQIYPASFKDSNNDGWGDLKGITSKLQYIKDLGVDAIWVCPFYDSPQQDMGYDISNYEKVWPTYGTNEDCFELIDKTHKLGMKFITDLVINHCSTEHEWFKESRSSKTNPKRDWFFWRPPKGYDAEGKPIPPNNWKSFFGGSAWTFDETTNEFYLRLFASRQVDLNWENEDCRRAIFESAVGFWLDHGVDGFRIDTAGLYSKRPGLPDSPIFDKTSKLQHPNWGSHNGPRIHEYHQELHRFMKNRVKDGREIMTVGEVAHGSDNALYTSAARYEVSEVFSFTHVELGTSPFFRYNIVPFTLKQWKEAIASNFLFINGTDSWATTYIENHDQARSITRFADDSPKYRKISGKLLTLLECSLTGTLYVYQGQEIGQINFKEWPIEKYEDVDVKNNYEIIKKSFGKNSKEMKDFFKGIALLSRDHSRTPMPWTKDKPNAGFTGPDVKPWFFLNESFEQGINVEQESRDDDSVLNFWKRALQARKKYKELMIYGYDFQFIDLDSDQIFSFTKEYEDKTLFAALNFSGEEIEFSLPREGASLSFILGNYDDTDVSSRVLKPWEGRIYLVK

For `Fc1cccc(CSc2nnc(COc3cccc4cccnc34)o2)c1` [4o, 2-[(3-Fluorobenzyl)thio]-5-[(quinolin-8-yloxy)methyl]-1,3,4-oxadiazole], the 50% inhibitory concentration (IC50) in data set [1] (setting [5]) is 76.9 µM; in data set [2] (setting [6]) it was over 500 µM; in data set [3] (setting [7]) it was over 500 µM; in data set [4] (setting [8]), over 500 µM; on α-glucosidase (setting [9]) it was 48.8 µM.
For the compound `Clc1ccc(Cn2cc(CSc3nnc(COc4cccc5cccnc45)o3)nn2)c(Cl)c1` [12i, 2-{[(1-(2,4-Dichlorobenzyl)-1H-1,2,3-triazol-4-yl)methyl]thio}-5-[(quinolin-8-yloxy)methyl]-1,3,4-oxadiazole], the melting point is 124 to 130 °C. This compound also came in with an IC50 in data set [1] (setting [5]) of 95.4 µM. Further, the concentration for half-maximal inhibition (IC50) in data set [2] (setting [6]) is over 500 µM. Besides, in data set [3] (setting [7]), the IC50 was over 500 µM. The IC50 in data set [4] (setting [8]) is over 500 µM. In addition, the IC50 at α-glucosidase (setting [9]) worked out at 42.8 µM.
Regarding `O=[N+]([O-])c1ccc(CSc2nnc(COc3cccc4cccnc34)o2)cc1` [4n, 2-[(4-Nitrobenzyl)thio]-5-[(quinolin-8-yloxy)methyl]-1,3,4-oxadiazole], the melting point was 156.6 to 160.1 °C. In addition, the 50% inhibitory concentration (IC50) in data set [1] (setting [5]) came out at 77.2 µM. The compound further displayed an IC50 in data set [2] (setting [6]) of over 500 µM. The compound also gave a 50% inhibitory concentration (IC50) in data set [3] (setting [7]) of over 500 µM. For the same compound, the half-inhibitory concentration (IC50) in data set [4] (setting [8]) was over 500 µM. Also, the half-inhibitory concentration (IC50) at α-glucosidase (setting [9]) was found to be 32.8 µM.
With `Clc1ccc(-n2cc(CSc3nnc(COc4cccc5cccnc45)o3)nn2)cc1` [12l, 2-{[(1-(4-Chlorophenyl)-1H-1,2,3-triazol-4-yl)methyl]thio}-5-[(quinolin-8-yloxy)methyl]-1,3,4-oxadiazole], the melting point fell in the range of 132 to 136 °C. In data set [1] (setting [5]), this compound returned an IC50 of 81.7 µM. In data set [2] (setting [6]), this compound came in with a half-inhibitory concentration (IC50) of over 500 µM. The compound further gave a half-maximal inhibitory concentration (IC50) in data set [3] (setting [7]) of over 500 µM. Besides, the IC50 in data set [4] (setting [8]) was over 500 µM. Further, the IC50 at α-glucosidase (setting [9]) turned out to be 38 µM.
Regarding `CCCCCn1cc(CSc2nnc(COc3cccc4cccnc34)o2)nn1` [12a], the melting point fell in the range of 90 to 94 °C. In data set [1] (setting [5]), this compound returned a 50% inhibitory concentration (IC50) of 90 µM. For the same compound, the concentration for half-maximal inhibition (IC50) in data set [2] (setting [6]) is over 500 µM. Further, the IC50 in data set [3] (setting [7]) is over 500 µM. In addition, the IC50 in data set [4] (setting [8]) was over 500 µM. Moreover, at α-glucosidase (setting [9]), the IC50 was determined as 35.2 µM.
`Brc1ccc(CSc2nnc(COc3cccc4cccnc34)o2)cc1` [4m, 2-[(4-Bromobenzyl)thio]-5-[(quinolin-8-yloxy)methyl]-1,3,4-oxadiazole] gave a melting point of 120.9 to 124.1 °C. In addition, in data set [1] (setting [5]), inhibition was half-maximal at 85.2 µM (IC50). Moreover, the IC50 in data set [2] (setting [6]) is over 500 µM. The same compound gave an IC50 in data set [3] (setting [7]) of over 500 µM. Further, in data set [4] (setting [8]), the IC50 was over 500 µM. Also, the IC50 at α-glucosidase was determined as 28.3 µM.
As for `Clc1ccc(-n2cc(CSc3nnc(COc4cccc5cccnc45)o3)nn2)c(Cl)c1` [12r, 2-{[(1-(2,4-Dichlorophenyl)-1H-1,2,3-triazol-4-yl)methyl]thio}-5-[(quinolin-8-yloxy)methyl]-1,3,4-oxadiazole], the melting point is 112 to 116 °C. In addition, in data set [1] (setting [5]), the concentration for half-maximal inhibition (IC50) came out at 101 µM. The compound also came in with a half-maximal inhibitory concentration (IC50) in data set [2] (setting [6]) of over 500 µM. In data set [3] (setting [7]), this compound returned an IC50 of over 500 µM. The IC50 in data set [4] (setting [8]) is over 500 µM. The half-maximal inhibitory concentration (IC50) at α-glucosidase (setting [9]) amounted to 48.5 µM.
With `Clc1ccc(CSc2nnc(COc3cccc4cccnc34)o2)c(Cl)c1` [4t, 2-[(2,4-Dichlorobenzyl)thio]-5-[(quinolin-8-yloxy)methyl]-1,3,4-oxadiazole], the melting point was 116.7 to 119.7 °C. The concentration for half-maximal inhibition (IC50) in data set [1] (setting [5]) is 94 µM. Also, the half-maximal inhibitory concentration (IC50) in data set [2] (setting [6]) is over 500 µM. Also, the IC50 in data set [3] (setting [7]) was over 500 µM. Moreover, the IC50 in data set [4] (setting [8]) is over 500 µM. The IC50 at α-glucosidase (setting [9]) amounted to 27.7 µM.
Take `C=CCSc1nnc(COc2cccc3cccnc23)o1` [4f, 2-(Allylthio)-5-[(quinolin-8-yloxy)methyl]-1,3,4-oxadiazole]: the half-maximal inhibitory concentration (IC50) in data set [1] (setting [5]) is 72.1 µM; in data set [2] (setting [6]) it was over 500 µM; in data set [3] (setting [7]) it was over 500 µM; in data set [4] (setting [8]) it was over 500 µM; at α-glucosidase (setting [9]), 34.5 µM.
On to `O=C1O[C@H]([C@@H](O)CO)C(O)=C1O` [Ascorbic acid, reference compound], for which the concentration for half-maximal inhibition (IC50) in data set [2] (setting [6]) turned out to be 103 µM.
Consider `CCCCCCn1cc(CSc2nnc(COc3cccc4cccnc34)o2)nn1` [12b, 2-{[(1-Hexyl-1H-1,2,3-triazol-4-yl)methyl]thio}-5-[(quinolin-8-yloxy)methyl]-1,3,4-oxadiazole], for which the half-inhibitory concentration (IC50) in data set [1] (setting [5]) is 80 µM; in data set [2] (setting [6]) it was over 500 µM; in data set [3] (setting [7]) it was over 500 µM; in data set [4] (setting [8]), over 500 µM; on α-glucosidase (setting [9]), 36.7 µM.
Regarding `BrCCSc1nnc(COc2cccc3cccnc23)o1` [4h, 2-[(2-Bromoethyl)thio]-5-[(quinolin-8-yloxy)methyl]-1,3,4-oxadiazole], the figures for the concentration for half-maximal inhibition (IC50) in data set [1] (setting [5]), in data set [2] (setting [6]) and in data set [3] (setting [7]) were 75.4 µM, over 500 µM and over 500 µM, respectively.
With `Oc1cccc2cccnc12` [8-HQ, 8-hydroxyquinoline, reference compound], the IC50 was 51.8 µM in data set [1]; over 500 µM in data set [2]; 184 µM in data set [3]; over 500 µM in data set [4]; 29.3 µM against α-glucosidase.
As to `Clc1cccc(CSc2nnc(COc3cccc4cccnc34)o2)c1` [4p, 2-[(3-Chlorobenzyl)thio]-5-[(quinolin-8-yloxy)methyl]-1,3,4-oxadiazole], the IC50 in data set [1] (setting [5]) was 68 µM; in data set [2] (setting [6]), over 500 µM; in data set [3] (setting [7]) it was over 500 µM; in data set [4] (setting [8]), over 500 µM; on α-glucosidase (setting [9]) it was 29.6 µM.
As to `Brc1cccc(CSc2nnc(COc3cccc4cccnc34)o2)c1` [4q, 2-[(3-Bromobenzyl)thio]-5-[(quinolin-8-yloxy)methyl]-1,3,4-oxadiazole], the IC50 is 78.6 µM in data set [1] (setting [5]); over 500 µM in data set [2] (setting [6]); over 500 µM in data set [3] (setting [7]); 427 µM in data set [4] (setting [8]); 29.6 µM on α-glucosidase (setting [9]).
For the compound `CC(C)=CCSc1nnc(COc2cccc3cccnc23)o1` [4g, 2-[(3-Methylbut-2-en-1-yl)thio]-5-[(quinolin-8-yloxy)methyl]-1,3,4-oxadiazole], the IC50 in data set [1] (setting [5]) is 86.4 µM; in data set [2] (setting [6]), over 500 µM; in data set [3] (setting [7]), over 500 µM; in data set [4] (setting [8]), over 500 µM; on α-glucosidase (setting [9]) it was 34.1 µM.
`Sc1nnc(COc2cccc3cccnc23)o1` [compound 3, 5-[(Quinolin-8-yloxy)methyl]-1,3,4-oxadiazole-2-thiol]: the 50% inhibitory concentration (IC50) was 25.2 µM in data set [1] (setting [5]); over 500 µM in data set [2] (setting [6]); 464 µM in data set [3] (setting [7]); over 500 µM in data set [4] (setting [8]); 34.7 µM on α-glucosidase (setting [9]).
On to `CCCCCCSc1nnc(COc2cccc3cccnc23)o1` [4e, 2-(Hexylthio)-5-[(quinolin-8-yloxy)methyl]-1,3,4-oxadiazole], for which the IC50 in data set [1] (setting [5]) was 75.7 µM; in data set [2] (setting [6]), over 500 µM; in data set [3] (setting [7]), over 500 µM; in data set [4] (setting [8]), 210 µM; at α-glucosidase (setting [9]), 48.1 µM.
In the case of `Fc1ccc(Cn2cc(CSc3nnc(COc4cccc5cccnc45)o3)nn2)cc1F` [12j, 2-{[(1-(3,4-Difluorobenzyl)-1H-1,2,3-triazol-4-yl)methyl]thio}-5-[(quinolin-8-yloxy)methyl]-1,3,4-oxadiazole], the IC50 in data set [1] (setting [5]) was 102 µM; in data set [2] (setting [6]), over 500 µM; in data set [3] (setting [7]), over 500 µM; in data set [4] (setting [8]), over 500 µM; at α-glucosidase (setting [9]), 59 µM.
For the compound `O=C(O)c1cc(O)c(O)c(O)c1` [Gallic acid, reference compound], the 50% inhibitory concentration (IC50) in data set [1] (setting [5]) came to 26.6 µM; in data set [2] (setting [6]), 17.9 µM; in data set [3] (setting [7]), 729 µM.
